Patent publication US7723021B2, “Methods for treating lentivirus infections” (The J. David Gladstone Institutes, priority 2003, dated 2010)
Entries after “also recorded” stand apart in the source; their conditions may differ. Residues, ends and D or L forms follow the SMILES beside them. *: point of attachment. Cbz = O=C(OCc1ccccc1)*

Key:
[1] = system: Vif-induced degradation of polyubiquitylated APOBEC3G; assay: 293T cells cotransfected with APOBEC3G-HA, His-ubiquitin and Vif, with MG132, anti-HA immunoblot; type: cell-based; conditions: MG132 for the final 6 hours of culture
Protocol: To obtain further insight into the mechanism of Vif-induced degradation of APOBEC3G, it was investigated whether APOBEC3G is modified by ubiquitylation. APOBEC3G and His-ubiquitin expression vectors (Treier et al., 1994) were cotransfected into 293T cells in the presence or absence of Vif expression vector. After 48 hours in culture, cellular lysates were prepared. […] Immunoblotting of lysates prepared in the absence of APOBEC3G-HA confirmed that anti-HA antibodies selectively reacted with modified forms of APOBEC3G (FIG. 7C, lane 10). Coexpression of Vif was associated with a complete loss of these polyubiquitylated APOBEC3G species as well as diminished expression of unmodified APOBEC3G (FIG. 7C, lanes 6 and 8). To investigate whether the 26S proteasome mediated Vif-induced degradation of these polyubiquitylated APOBEC3G protein species, parallel experiments were performed in the presence of the proteasome inhibitor, MG132. […] However, it was also observed in multiple experiments that one of the many APOBEC3G degradation products appearing in Vif-expressing cells increased after the addition of MG132 (FIG. 7C, compare lanes 7 and 8). These findings raise the possibility that Vif action may involve multiple pathways including the targeting of select proteolytic fragments of APOBEC3G for degradation by the 26S proteasome.
FIG. 7. HIV-1 Vif induces degradation of APOBEC3G, and polyubiquitylated forms of APOBEC3G form a major target for Vif induced degradation. (A and B) Vif promotes degradation or extensive proteolysis of APOBEC3G as reflected by the loss of both N- and C-terminal immunoreactive epitopes. Graded amounts of expression vector DNA encoding HA-APOBEC3G or APOBEC3G-HA were co-transfected with and without Vif expression vector DNA into 293T cells. Cellular lysates prepared from these cultures were analyzed by immunoblotting with anti-HA antibodies. […] Note that Vif expression induces a loss of anti-HA immunoreactivity regardless of whether the HA epitope is positioned at the N- or C-terminus of APOBEC3G. (C) APOBEC3G is polyubiquitylated and Vif induces degradation of (Ub)n-APOBEC3G apparently by a proteasome-independent mechanism. 293T cells were cotransfected with APOBEC3G-HA and his-ubiquitin expression vectors in the presence or absence of Vif expression vector. 48 hours later, cellular lysates were prepared. As indicated, select cultures were supplemented with the proteasome inhibitor, MG132, for the final 6 hours of culture. Lysates were analyzed by immunoblotting with anti-HA antibodies. […] In addition to the polyubiquitylated forms of APOBEC3G-HA, degradation products of APOBEC3G-HA were apparent both in the presence and absence of Vif expression.

[2] = system: Vif-mediated degradation of APOBEC3G (luc-APOBEC3G); assay: Vif/luc-APOBEC3G HeLa cell line luciferase assay; type: cell-based
Text: The following is one non-limiting example of a suitable assay for identifying agents that reduce Vif-induced degradation of APOBEC3G. Mammalian cells (e.g., an immortalized cell line) are stably transfected with an expression vector that includes a coding sequence for a luciferase-APOBEC3G fusion protein, such that the cells synthesize the luciferase-APOBEC3G (luc-APOBEC3G) fusion protein. A substrate for luciferase is provided in the cell medium, such that the substrate enters the cell, and is acted on by the luciferase portion of the luciferase-APOBEC3G to yield a luminescent product. The level of luciferase in the cell is detected using a luminometer, and the level of luc-APOBEC3G is expressed as relative light units. The cells are transfected with an expression vector that includes a coding sequence for Vif to yield a Vif/luc-APOBEC3G cell. Because Vif induces degradation of luc-APOBEC3G, the presence of Vif protein in the Vif/luc-APOBEC3G cell reduces the level of luc-APOBEC3G, compared to the level of luc-APOBEC3G in the absence of Vif. When the Vif/luc-APOBEC3G cell is contacted with a test agent that reduces Vif-induced APOBEC3G degradation, the level of luc-APOBEC3G increases relative to the level of luc-APOBEC3G in the Vif/luc-APOBEC3G cell in the absence of the test agent.
Several cell lines were constructed that could serve as the basis for a high-throughput assay for inhibitors of HIV-1 Vif action. The cell lines produce Vif and an APOBEC3G fusion protein composed of APOBEC3G fused to a heterologous protein that provides a detectable signal. One such cell line was constructed as follows. HeLa cells were co-transfected with both a Vif expression vector and a vector expressing APOBEC3G tagged with renilla-luciferase (luc-APOBEC3G), to generate a Vif/luc-APOBEC3G cell line. […]
The Vif/luc-APOBEC3G cell line was treated with the proteasome inhibitor MG132, an agent capable of blocking Vif-mediated degradation of APOBEC3G, and the cells were subsequently lysed. […] The level of luc-APOBEC3G was expressed as relative light units (RLU). […]

CC(C)C[C@@H](C=O)NC(=O)[C@H](CC(C)C)NC(=O)[C@H](CC(C)C)NC(=O)OCc1ccccc1 [MG132] (Cbz-Leu-Leu-Leu-aldehyde)
Vif-dependent disappearance of polyubiquitylated APOBEC3G [1]: did not block; also recorded: not blocked | accumulation of polyubiquitylated proteins within the cells [1]: increased accumulation | levels of unmodified APOBEC3G in the presence of Vif [1]: did not block the Vif-dependent disappearance of polyubiquitylated APOBEC3G or increase levels of the unmodified protein | one of the APOBEC3G degradation products in Vif-expressing cells [1]: increased in quantity | Vif-caused reduction in the level of luc-APOBEC3G protein ([2]; Vif/luc-APOBEC3G cells): reversed | reduction of RLU in the absence of the proteasome inhibitor relative to MG132-treated cells ([2]; Vif/luc-APOBEC3G cells): approximately 20 fold | level of luc-APOBEC3G in cell lysate ([2]; Vif/luc-APOBEC3G cells treated with MG132): 203333 RLU
